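A five-concentration, 48-hour dose response in 96-well plates underlies each endpoint, interpolated linearly between surrounding concentrations. GI50 is the concentration that inhibits growth by half. The concentration for full growth arrest is given as TGI.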

Some test systems named below: A498 renal; CCRF-CEM leukemia; HOP-62 NSCLC; K-562 leukemia; KM12 colon; MCF7 breast; SNB-75 CNS; SW-620 colon.
Test in all cases: growth of human tumour cells (NCI), 48 h

For the compound `COc1ccc2c(c1)C(=O)c1c-2n(CCCN(C)C)c(=O)c2ccccc12`, the GI50 is 0.377 µM with A498 renal; 0.077 µM in the experiment on CCRF-CEM leukemia; 0.433 µM with HOP-62 NSCLC; 0.287 µM in the experiment on K-562 leukemia; 0.412 µM with KM12 colon; 0.0295 µM in the experiment with MCF7 breast. For the same compound, the GI50 is 0.648 µM in the experiment with SNB-75 CNS and 0.16 µM in the experiment on SW-620 colon. For the same compound, the TGI in the experiment with A498 renal is 1.72 µM; in the experiment with CCRF-CEM leukemia, 0.629 µM; in the experiment on HOP-62 NSCLC, 11.2 µM; in the experiment with K-562 leukemia, 17.5 µM; with KM12 colon, 5.25 µM; in the experiment with MCF7 breast, 2.31 µM. Moreover, the results for the TGI with SNB-75 CNS and with SW-620 colon were 5.29 µM and 3.93 µM, respectively.
As for `COc1ccc2ncn(-c3cc(O[C@H](C)c4ccccc4C(F)(F)F)c(C(N)=O)s3)c2c1`, the GI50 is 0.0764 µM in the experiment with A498 renal; 0.0821 µM in the experiment on CCRF-CEM leukemia; 0.105 µM in the experiment with HOP-62 NSCLC; 0.109 µM with K-562 leukemia; 0.0794 µM with KM12 colon; 0.0637 µM in the experiment on MCF7 breast. Also, the figures for the GI50 in the experiment on SNB-75 CNS and in the experiment on SW-620 colon were 0.917 µM and 0.0749 µM, respectively. The TGI in the experiment with A498 renal was 0.597 µM; with CCRF-CEM leukemia it was 14.5 µM; in the experiment with HOP-62 NSCLC, 4.18 µM; in the experiment with K-562 leukemia it was 19.4 µM; with KM12 colon, 3.04 µM; with MCF7 breast, 13 µM. The TGI in the experiment on SNB-75 CNS was determined as 6.6 µM; in the experiment on SW-620 colon, 6.01 µM.
In the case of `O=c1oc2ccc(I)cc2c(=O)n1-c1ccc(Br)cc1F`, the GI50 was 0.225 µM in the experiment on A498 renal; 1.93 µM in the experiment on CCRF-CEM leukemia; 1.83 µM with HOP-62 NSCLC; 0.536 µM in the experiment with K-562 leukemia; 2.07 µM with KM12 colon; 1.34 µM with MCF7 breast. For the same compound, the GI50 in the experiment on SNB-75 CNS was 0.374 µM; in the experiment on SW-620 colon it was 1.1 µM. Also, the TGI in the experiment on A498 renal was 0.697 µM; in the experiment on CCRF-CEM leukemia, 10.4 µM; in the experiment with HOP-62 NSCLC, 6.65 µM; in the experiment with K-562 leukemia it was more than 71.7 µM; in the experiment on KM12 colon, 4.69 µM; in the experiment with MCF7 breast, 9.22 µM. Further, the results for the TGI in the experiment with SNB-75 CNS and in the experiment with SW-620 colon were 2.48 µM and 9.68 µM, respectively.
As for `CC(=O)O[C@@H]1C2CCC3C(CC[C@@]4(C)C3CC[C@@H]4C(C)N(C)C)[C@@]2(C)CC[C@@H]1NC(=O)C=C(C)C` (stereo partly specified), the GI50 in the experiment with A498 renal was 2.32 µM; in the experiment on CCRF-CEM leukemia it was 2.07 µM; with HOP-62 NSCLC, 2.25 µM; with K-562 leukemia it was 1.1 µM; in the experiment with KM12 colon it was 2.66 µM; in the experiment with MCF7 breast, 1.67 µM. Also, the GI50 in the experiment on SNB-75 CNS was 2.35 µM; in the experiment with SW-620 colon it was 1.73 µM. The TGI is 9.78 µM in the experiment with A498 renal; 6.59 µM with CCRF-CEM leukemia; 5.62 µM in the experiment on HOP-62 NSCLC; 3.15 µM in the experiment on K-562 leukemia; 9.5 µM in the experiment on KM12 colon; 4.38 µM in the experiment with MCF7 breast. The values for the TGI in the experiment on SNB-75 CNS and with SW-620 colon were 9.31 µM and 3.48 µM, respectively.
In the case of `CNC(=O)c1c(C)oc2cc(Oc3ncnc4cc(OC)c(OC)cc34)ccc12`, the GI50 was 0.946 µM with A498 renal; more than 100 µM with CCRF-CEM leukemia; more than 100 µM in the experiment with HOP-62 NSCLC; more than 100 µM with K-562 leukemia; more than 100 µM in the experiment on KM12 colon; more than 100 µM in the experiment with MCF7 breast. Moreover, the GI50 with SNB-75 CNS was 2.35 µM; in the experiment on SW-620 colon, more than 100 µM. Also, the TGI in the experiment on A498 renal was 5.44 µM; with CCRF-CEM leukemia, more than 100 µM; in the experiment with HOP-62 NSCLC it was more than 100 µM; in the experiment on K-562 leukemia it was more than 100 µM; in the experiment with KM12 colon, more than 100 µM; in the experiment with MCF7 breast, more than 100 µM. Further, the TGI in the experiment on SNB-75 CNS and with SW-620 colon was more than 100 µM each time.
Regarding `O=C1Nc2c(ccc(Cl)c2Cl)/C1=C/c1cc(Br)c(O)c(Br)c1`, the GI50 is 3.9 µM in the experiment on A498 renal; 3.95 µM in the experiment with CCRF-CEM leukemia; 11.9 µM with HOP-62 NSCLC; 5.57 µM in the experiment on K-562 leukemia; 4.75 µM in the experiment on KM12 colon; 3.4 µM in the experiment on MCF7 breast. The GI50 in the experiment on SNB-75 CNS is 9 µM; with SW-620 colon, 4.67 µM. The TGI with A498 renal is 23.3 µM; in the experiment on CCRF-CEM leukemia, more than 65.4 µM; in the experiment with HOP-62 NSCLC, more than 68 µM; in the experiment with K-562 leukemia it was more than 100 µM; with KM12 colon, 40.2 µM; in the experiment with MCF7 breast, more than 71.9 µM. In addition, the TGI was 83.2 µM with SNB-75 CNS and more than 100 µM in the experiment with SW-620 colon.
As to `Oc1ccc(C=Nc2ccccc2O)cc1`, the TGI with A498 renal was more than 100 µM; with CCRF-CEM leukemia, more than 100 µM; in the experiment with HOP-62 NSCLC, more than 100 µM; in the experiment on K-562 leukemia, more than 100 µM; in the experiment with KM12 colon it was more than 100 µM; in the experiment with MCF7 breast, 90.8 µM. The TGI in the experiment with SNB-75 CNS and with SW-620 colon was more than 100 µM throughout.
`COc1cc(/C=C/c2cc(/C=C/c3ccc(O)c(OC)c3)n(C(=O)c3ccc(Cl)cc3)n2)ccc1O`: the GI50 with A498 renal is 2.71 µM; in the experiment on CCRF-CEM leukemia, 1.64 µM; with HOP-62 NSCLC it was 2.08 µM; in the experiment on K-562 leukemia, 0.807 µM; with KM12 colon, 1.24 µM; with MCF7 breast, 2.43 µM. For the same compound, the values for the GI50 in the experiment on SNB-75 CNS and in the experiment with SW-620 colon were 1.99 µM and 3.12 µM, respectively. The TGI is 9.6 µM in the experiment on A498 renal; more than 100 µM in the experiment with CCRF-CEM leukemia; 6.92 µM in the experiment with HOP-62 NSCLC; 16.4 µM with K-562 leukemia; 14.4 µM with KM12 colon; 16 µM with MCF7 breast. The TGI in the experiment with SNB-75 CNS is 10.3 µM; in the experiment with SW-620 colon it was 13.8 µM.
`COc1cc2c(cc1OC(C)C)[C@H](c1ccc(Cl)cc1)N(c1ccc(N(C)CC3CCC(N4CCN(C)C(=O)C4)CC3)cc1)C(=O)C2` (stereo partly specified): the GI50 was 1.38 µM in the experiment on A498 renal; 2.61 µM in the experiment on CCRF-CEM leukemia; 4.19 µM in the experiment with HOP-62 NSCLC; 3.56 µM in the experiment with K-562 leukemia; 3.13 µM in the experiment with KM12 colon; 0.271 µM in the experiment with MCF7 breast. For the same compound, the GI50 was 2.95 µM in the experiment on SNB-75 CNS and 4.6 µM in the experiment with SW-620 colon. For the same compound, the TGI in the experiment on A498 renal is 6.49 µM; with CCRF-CEM leukemia, 7.48 µM; in the experiment with HOP-62 NSCLC it was 9.64 µM; in the experiment on K-562 leukemia it was 16.9 µM; in the experiment on KM12 colon it was 9.11 µM; in the experiment on MCF7 breast it was 3.61 µM. Moreover, the TGI in the experiment with SNB-75 CNS came to 8.68 µM; in the experiment on SW-620 colon, 10 µM.

For the origin of these results see PubChem BioAssay (NCI).
